Experimental data as given in article PMC12717099, “Peptidoglycan recruitment by a penicillin binding protein” (Nature Communications, 2025).

Columns and labels:
Type in all cases: cell-based, Enterococcus faecium
[1] = system: E. faecium D344SRF pCWR624Δpbp5_pbp5_V3; experiment: MIC by broth microdilution, pbp5_V3; settings: strain pbp5_V3 (loop 625-631); 37 °C, 20 h; n=3
Protocol: (§1) The synthetic genes were purchased from GeneWiz (South Plainfield, NJ). The ribosome binding site sequence AGGAGG (Shine-Dalgarno), and a string of five A’s followed by the sequence […], that corresponds to the first 15 bp found in pbp5 from E. faecium C68 were added upstream of the START codon. The terminator sequence […] was added downstream of the STOP codon. BamHI restriction sites were added to the flanking 5′ and 3′ ends. The synthetic genes were inserted into the vector pCWR624Δpbp5. This vector was derived from pCWR624[10], in which the pbp5 gene from D366 was excised by digestion with BamHI followed by re-ligation of the vector, allowing subsequent insertion of modified synthetic pbp5s into the BamHI site downstream of ftsWEfm and psr from E. faecium C68[10]. The synthetic genes were inserted in a BamHI site located downstream of psr. The proper orientation was confirmed by PCR amplification using the forward primer OR_pbp5_FOR_1 (5′-[…]-3′) and the reverse primer OR_pbp5_REV_1 (5′-[…]-3′). Plasmids were sequence verified for the specific binding site mutations. The resulting constructions were electroporated into the natural pbp5(-) mutant E. faecium D344SRF with a selection on brain heart infusion agar (BHI) plates containing kanamycin (1500 µg/ml).
(§2) E. faecium strains were streaked fresh from −80 °C stored glycerol stocks onto brain heart infusion (BHI) agar plates and incubated for 18 h at 37 °C. Strains harboring the plasmid derivatives were grown under antibiotic pressure on agar plates containing kanamycin at 1500 µg/ml. A single colony was inoculated into BHI or BHI-kanamycin (1500 µg/ml) for overnight cultures (18 h).
(§3) MIC determination was performed using a standard broth microdilution technique in duplicate from independent cultures. Overnight cultures were inoculated into 3 ml of BHI or BHI-kanamycin (1500 µg/ml) broth in a dilution of 1:100 and incubated until an OD600 of ~0.5 was reached. Cultures were diluted 1:1000 and inoculated into the 96-well plates with the corresponding antibiotics to be tested. Plates were incubated at 37 °C for 20 h and read by eye. […]

[2] = system: E. faecium D344SRF pCWR624Δpbp5_pbp5_V5; experiment: MIC by broth microdilution, pbp5_V5; settings: strain pbp5_V5 (Q396A_E397A); 37 °C, 20 h; n=3
Protocol: as §1, §2, §3

[3] = system: E. faecium D344SRF pCWR624Δpbp5_pbp5_V4; experiment: Disk diffusion assay, pbp5_V4; settings: strain pbp5_V4 (D530A_L533A_W457A); 37 °C, 24 h; n=3
Protocol: as §1, §2
(§4) Antibiotic disks used were manufactured by BD BBL^TM. Disk diffusion assays were performed according to the Clinical and Laboratory Standards Institute (CLSI) guidance. Overnight cultures were inoculated into 3 ml of BHI or BHI-kanamycin (1500 µg/ml) broth with a dilution of 1:100 and incubated until an OD600 of ~0.5 was reached. […] The plates were incubated at 37 °C and the zones of inhibition were measured after 24 h. […]

[4] = system: E. faecium D344SRF pCWR624 (PBP5 plasmid); experiment: Disk diffusion assay, pCWR624; settings: strain pCWR624; 37 °C, 24 h; n=3
Protocol: as §1, §2, §4

[5] = system: E. faecium D344SRF pCWR624 (PBP5 plasmid); experiment: MIC by broth microdilution, pCWR624; settings: strain pCWR624; 37 °C, 20 h; n=3
Protocol: as §1, §2, §3

[6] = system: E. faecium D344SRF pCWR624Δpbp5_pbp5_V3; experiment: Disk diffusion assay, pbp5_V3; settings: strain pbp5_V3 (loop 625-631); 37 °C, 24 h; n=3
Protocol: as §1, §2, §4

[7] = system: E. faecium D344SRF pCWR624Δpbp5_pbp5_V5; experiment: Disk diffusion assay, pbp5_V5; settings: strain pbp5_V5 (Q396A_E397A); 37 °C, 24 h; n=3
Protocol: as §1, §2, §4

[8] = system: E. faecium D344SRF pCWR624Δpbp5 (empty plasmid); experiment: Disk diffusion assay, pCWR624Δpbp5; settings: strain pCWR624Δpbp5; 37 °C, 24 h; n=3
Protocol: as §1, §2, §4

[9] = system: E. faecium D344SRF, Wild Type; settings: strain Wild Type; disks Ampicillin 10 μg, Penicillin 10 U, Ceftriaxone 30 μg; BHI agar, 37 °C, 24 h; n=3
Protocol: as §2
Antibiotic disks used were manufactured by BD BBL^TM. Disk diffusion assays were performed according to the Clinical and Laboratory Standards Institute (CLSI) guidance. Overnight cultures were inoculated into 3 ml of BHI or BHI-kanamycin (1500 µg/ml) broth with a dilution of 1:100 and incubated until an OD600 of ~0.5 was reached. The OD600 was adjusted to 0.01 to get the inoculum suspension. […] The plates were incubated at 37 °C and the zones of inhibition were measured after 24 h. All experiments were conducted in triplicate.

[10] = system: E. faecium D344SRF pCWR624Δpbp5_pbp5_V2; experiment: Disk diffusion assay, pbp5_V2; settings: strain pbp5_V2 (N523A_Q627A); 37 °C, 24 h; n=3
Protocol: as §1, §2, §4

[11] = system: E. faecium D344SRF pCWR624Δpbp5_pbp5_V6; experiment: Disk diffusion assay, pbp5_V6; settings: strain pbp5_V6 (E284A_E291A_S294A_N295A); 37 °C, 24 h; n=3
Protocol: as §1, §2, §4

[12] = system: E. faecium D344SRF pCWR624Δpbp5_pbp5_V1; experiment: Disk diffusion assay, pbp5_V1; settings: strain pbp5_V1 (N523A); 37 °C, 24 h; n=3
Protocol: as §1, §2, §4

[13] = system: E. faecium D344SRF pCWR624Δpbp5 (empty plasmid); experiment: MIC by broth microdilution, pCWR624Δpbp5; settings: strain pCWR624Δpbp5; 37 °C, 20 h; n=3
Protocol: as §1, §2, §3

[14] = system: E. faecium D344SRF pCWR624Δpbp5_pbp5_V6; experiment: MIC by broth microdilution, pbp5_V6; settings: strain pbp5_V6 (E284A_E291A_S294A_N295A); 37 °C, 20 h; n=3
Protocol: as §1, §2, §3

[15] = system: E. faecium D344SRF pCWR624Δpbp5_pbp5_V1; experiment: MIC by broth microdilution, pbp5_V1; settings: strain pbp5_V1 (N523A); 37 °C, 20 h; n=3
Protocol: as §1, §2, §3

[16] = system: E. faecium D344SRF, Wild Type; experiment: MIC by broth microdilution, Wild Type; settings: strain Wild Type; BHI broth microdilution, 37 °C, 20 h, read by eye; n=3
Protocol: as §2
MIC determination was performed using a standard broth microdilution technique in duplicate from independent cultures. Overnight cultures were inoculated into 3 ml of BHI or BHI-kanamycin (1500 µg/ml) broth in a dilution of 1:100 and incubated until an OD600 of ~0.5 was reached. Cultures were diluted 1:1000 and inoculated into the 96-well plates with the corresponding antibiotics to be tested. Plates were incubated at 37 °C for 20 h and read by eye. The MICs were defined as the lowest antibiotic concentration that inhibited growth.

[17] = system: E. faecium D344SRF pCWR624Δpbp5_pbp5_V4; experiment: MIC by broth microdilution, pbp5_V4; settings: strain pbp5_V4 (D530A_L533A_W457A); 37 °C, 20 h; n=3
Protocol: as §1, with “The resulting constructions were electroporated into the natural pbp5(-) mutant E. faecium D344SRF with a selection on brain heart infusion agar (BHI) plates containing kanamycin (1500 µg/ml).” left out
MIC determination was performed using a standard broth microdilution technique in duplicate from independent cultures. […] Plates were incubated at 37 °C for 20 h and read by eye. […]

[18] = system: E. faecium D344SRF pCWR624Δpbp5_pbp5_V2; experiment: MIC by broth microdilution, pbp5_V2; settings: strain pbp5_V2 (N523A_Q627A); 37 °C, 20 h; n=3
Protocol: as §2

Row | Structure (SMILES) | MIC (µg/ml) [Range] [1] | MIC (µg/ml) [Range] [2] | Zone Size (mm) [Range] [3] | Zone Size (mm) [Range] [4] | MIC (µg/ml) [Range] [5] | Zone Size (mm) [Range] [6] | Zone Size (mm) [Range] [7] | Zone Size (mm) [Range] [8] | Zone Size (mm) [Range] [9] | Zone Size (mm) [Range] [10] | Zone Size (mm) [Range] [11] | Zone Size (mm) [Range] [12] | MIC (µg/ml) [Range] [13] | MIC (µg/ml) [Range] [14] | MIC (µg/ml) [Range] [15] | MIC (µg/ml) [Range] [16] | MIC (µg/ml) [Range] [17] | MIC (µg/ml) [Range] [18]
1 | CC1(C)S[C@@H]2[C@H](NC(=O)[C@H](N)c3ccccc3)C(=O)N2[C@H]1C(=O)O [Ampicillin] | < 0.19 [<0.19-0.39] µg/ml | 100 [100] µg/ml | 32 [32] mm | 0 [0] mm | 100 [100->200] µg/ml | 32 [30-32] mm | 0 [0-10] mm | 30 [30-32] mm | 32 [30-32] mm | 26 [26-28] mm | 0 [0-10] mm | 16 [14-16] mm | 0.78 [0.39-1.56] µg/ml | 100 [100] µg/ml | 100 [50-100] µg/ml | 0.39 [0.39-0.78] µg/ml | – | –
2 | CC1(C)S[C@@H]2[C@H](NC(=O)Cc3ccccc3)C(=O)N2[C@H]1C(=O)O [Penicillin, penicillin G] | 0.39 [0.39] µg/ml | 200 [200] µg/ml | 32 [30-32] mm | 0 [0] mm | > 200 [>200] µg/ml | 32 [30-32] mm | 0 [0] mm | 28 [28-32] mm | 28 [28-32] mm | 26 [26-28] mm | 0 [0] mm | 0 [0] mm | 0.39 [0.39-1.56] µg/ml | 200 [200] µg/ml | 200 [200] µg/ml | 0.39 [0.39-0.78] µg/ml | 0.39 [0.39] µg/ml | 12.5 [12.5-25] µg/ml
